Assay results from PubChem BioAssay (NCI).
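GI50: concentration for 50% inhibition of growth. TGI denotes the concentration required for complete inhibition of growth.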

Legend:
Experiment in all cases: NCI anticancer screen, dose series, 384-well format
MDA-MB-231 breast = test system: MDA-MB-231 breast
NCI-H322M lung = test system: NCI-H322M lung
SK-MEL-28 melanoma = test system: SK-MEL-28 melanoma
SF-268 CNS = test system: SF-268 CNS
MOLT-4 leukemia = test system: MOLT-4 leukemia
MDA-MB-435 melanoma = test system: MDA-MB-435 melanoma
MALME-3M melanoma = test system: MALME-3M melanoma
SNB-75 CNS = test system: SNB-75 CNS
A549 NSCLC = test system: A549 NSCLC
UACC-257 melanoma = test system: UACC-257 melanoma
A498 renal = test system: A498 renal
IGROV1 ovarian = test system: IGROV1 ovarian
SNB-19 CNS = test system: SNB-19 CNS
OVCAR-8 ovarian = test system: OVCAR-8 ovarian
COLO 205 colon = test system: COLO 205 colon
NCI-H460 NSCLC = test system: NCI-H460 NSCLC
NCI/ADR-RES ovarian = test system: NCI/ADR-RES ovarian
CAKI-1 renal = test system: CAKI-1 renal
NCI-H226 lung = test system: NCI-H226 lung
LOX IMVI melanoma = test system: LOX IMVI melanoma
OVCAR-4 ovarian = test system: OVCAR-4 ovarian
SK-MEL-5 melanoma = test system: SK-MEL-5 melanoma
UACC-62 melanoma = test system: UACC-62 melanoma
OVCAR-5 ovarian = test system: OVCAR-5 ovarian
UO-31 renal = test system: UO-31 renal
U251 glioblastoma = test system: U251 glioblastoma
DU-145 prostate = test system: DU-145 prostate
SW-620 colon = test system: SW-620 colon
MDA-MB-468 breast = test system: MDA-MB-468 breast
HCT-116 colon = test system: HCT-116 colon
786-0 renal = test system: 786-0 renal
RPMI-8226 leukemia = test system: RPMI-8226 leukemia
SN12C renal = test system: SN12C renal
RXF 393 renal = test system: RXF 393 renal
ACHN renal = test system: ACHN renal
KM12 colon = test system: KM12 colon
SF-539 CNS = test system: SF-539 CNS
HT29 colon = test system: HT29 colon
HS 578T breast = test system: HS 578T breast
T-47D breast = test system: T-47D breast
HCT-15 colon = test system: HCT-15 colon
M14 melanoma = test system: M14 melanoma
SF-295 CNS = test system: SF-295 CNS
NCI-H23 lung = test system: NCI-H23 lung
PC-3 prostate = test system: PC-3 prostate
BT-549 breast = test system: BT-549 breast
SR leukemia = test system: SR leukemia
NCI-H522 lung = test system: NCI-H522 lung
HOP-62 NSCLC = test system: HOP-62 NSCLC
HOP-92 NSCLC = test system: HOP-92 NSCLC
HCC-2998 colon = test system: HCC-2998 colon
MCF7 breast = test system: MCF7 breast
OVCAR-3 ovarian = test system: OVCAR-3 ovarian
SK-OV-3 ovarian = test system: SK-OV-3 ovarian
CCRF-CEM leukemia = test system: CCRF-CEM leukemia
TK-10 renal = test system: TK-10 renal
HL-60(TB) leukemia = test system: HL-60(TB) leukemia
EKVX NSCLC = test system: EKVX NSCLC

CN1CCN(c2ccc(C(=O)Nc3n[nH]c4ccc(Cc5cc(F)cc(F)c5)cc34)c(NC3CCOCC3)c2)CC1
GI50 (MDA-MB-231 breast): 1230 nM
TGI (MDA-MB-231 breast): 2480 nM
GI50 (NCI-H322M lung): 1470 nM
TGI (NCI-H322M lung): 2790 nM
GI50 (SK-MEL-28 melanoma): 1670 nM
TGI (SK-MEL-28 melanoma): 3.04 µM
GI50 (SF-268 CNS): 1600 nM
TGI (SF-268 CNS): 2970 nM
GI50 (MOLT-4 leukemia): 1360 nM
TGI (MOLT-4 leukemia): 2650 nM
GI50 (MDA-MB-435 melanoma): 1690 nM
TGI (MDA-MB-435 melanoma): 3.07 µM
GI50 (MALME-3M melanoma): 1270 nM
TGI (MALME-3M melanoma): 2530 nM
GI50 (SNB-75 CNS): 1370 nM
TGI (SNB-75 CNS): 2670 nM
GI50 (A549 NSCLC): 1410 nM
TGI (A549 NSCLC): 2730 nM
GI50 (UACC-257 melanoma): 1550 nM
TGI (UACC-257 melanoma): 2900 nM
GI50 (A498 renal): 1710 nM
TGI (A498 renal): 3.09 µM
GI50 (IGROV1 ovarian): 1010 nM
TGI (IGROV1 ovarian): 2210 nM
GI50 (SNB-19 CNS): 1700 nM
TGI (SNB-19 CNS): 3.11 µM
GI50 (OVCAR-8 ovarian): 1660 nM
TGI (OVCAR-8 ovarian): 3.04 µM
GI50 (COLO 205 colon): 1720 nM
TGI (COLO 205 colon): 3.12 µM
GI50 (NCI-H460 NSCLC): 1570 nM
TGI (NCI-H460 NSCLC): 2950 nM
GI50 (NCI/ADR-RES ovarian): 1550 nM
TGI (NCI/ADR-RES ovarian): 2900 nM
GI50 (CAKI-1 renal): 1630 nM
TGI (CAKI-1 renal): 3000 nM
GI50 (NCI-H226 lung): 727 nM
TGI (NCI-H226 lung): 2070 nM
GI50 (LOX IMVI melanoma): 1530 nM
TGI (LOX IMVI melanoma): 2870 nM
GI50 (OVCAR-4 ovarian): 1020 nM
TGI (OVCAR-4 ovarian): 2230 nM
GI50 (SK-MEL-5 melanoma): 1590 nM
TGI (SK-MEL-5 melanoma): 2940 nM
GI50 (UACC-62 melanoma): 1600 nM
TGI (UACC-62 melanoma): 2960 nM
GI50 (OVCAR-5 ovarian): 1480 nM
TGI (OVCAR-5 ovarian): 2840 nM
GI50 (UO-31 renal): 1590 nM
TGI (UO-31 renal): 2950 nM
GI50 (U251 glioblastoma): 1680 nM
TGI (U251 glioblastoma): 3.06 µM
GI50 (DU-145 prostate): 1550 nM
TGI (DU-145 prostate): 2890 nM
GI50 (SW-620 colon): 1490 nM
TGI (SW-620 colon): 2840 nM
GI50 (MDA-MB-468 breast): 1120 nM
TGI (MDA-MB-468 breast): 2330 nM
GI50 (HCT-116 colon): 1500 nM
TGI (HCT-116 colon): 2850 nM
GI50 (786-0 renal): 1510 nM
TGI (786-0 renal): 2850 nM
GI50 (RPMI-8226 leukemia): 1350 nM
TGI (RPMI-8226 leukemia): 2650 nM
GI50 (SN12C renal): 1210 nM
TGI (SN12C renal): 2480 nM
GI50 (RXF 393 renal): 825 nM
TGI (RXF 393 renal): 2200 nM
GI50 (ACHN renal): 1540 nM
TGI (ACHN renal): 2880 nM
TGI (KM12 colon): 1370 nM
GI50 (SF-539 CNS): 1680 nM
TGI (SF-539 CNS): 3.06 µM
GI50 (HT29 colon): 1300 nM
TGI (HT29 colon): 2610 nM
GI50 (HS 578T breast): 1530 nM
TGI (HS 578T breast): 2860 nM
GI50 (T-47D breast): 1350 nM
TGI (T-47D breast): 2650 nM
GI50 (HCT-15 colon): 1160 nM
TGI (HCT-15 colon): 2410 nM
GI50 (M14 melanoma): 1690 nM
TGI (M14 melanoma): 3.06 µM
GI50 (SF-295 CNS): 1680 nM
TGI (SF-295 CNS): 3.05 µM
GI50 (NCI-H23 lung): 1230 nM
TGI (NCI-H23 lung): 2480 nM
GI50 (PC-3 prostate): 1230 nM
TGI (PC-3 prostate): 2480 nM
GI50 (BT-549 breast): 1730 nM
TGI (BT-549 breast): 3.12 µM
GI50 (SR leukemia): 24.3 nM
TGI (SR leukemia): 55.4 nM
GI50 (NCI-H522 lung): 1400 nM
TGI (NCI-H522 lung): 2710 nM
GI50 (HOP-62 NSCLC): 1430 nM
TGI (HOP-62 NSCLC): 2750 nM
GI50 (HOP-92 NSCLC): 1140 nM
TGI (HOP-92 NSCLC): 2360 nM
GI50 (HCC-2998 colon): 1030 nM
TGI (HCC-2998 colon): 2220 nM
GI50 (MCF7 breast): 1140 nM
TGI (MCF7 breast): 2370 nM
GI50 (OVCAR-3 ovarian): 1050 nM
TGI (OVCAR-3 ovarian): 2290 nM
GI50 (SK-OV-3 ovarian): 1430 nM
TGI (SK-OV-3 ovarian): 2760 nM
GI50 (CCRF-CEM leukemia): 1870 nM
TGI (CCRF-CEM leukemia): 3.3 µM
GI50 (TK-10 renal): 1570 nM
TGI (TK-10 renal): 2930 nM
GI50 (HL-60(TB) leukemia): 1830 nM
TGI (HL-60(TB) leukemia): 3.24 µM
GI50 (EKVX NSCLC): 1200 nM
TGI (EKVX NSCLC): 2460 nM
